Measured values reported in paper PMC9851200, “Multiparameter phenotypic screening for endogenous TFEB and TFE3 translocation identifies novel chemical series modulating lysosome function” (Autophagy, 2022).

Tests used:
Format in all cases: binding
[1] = molecular target: T1, kinases (KINOMEscan panel) (Homo sapiens, UniProt O15146); details: MUSK; NEW KINOMEscan
T1 sequence (O15146 24-869): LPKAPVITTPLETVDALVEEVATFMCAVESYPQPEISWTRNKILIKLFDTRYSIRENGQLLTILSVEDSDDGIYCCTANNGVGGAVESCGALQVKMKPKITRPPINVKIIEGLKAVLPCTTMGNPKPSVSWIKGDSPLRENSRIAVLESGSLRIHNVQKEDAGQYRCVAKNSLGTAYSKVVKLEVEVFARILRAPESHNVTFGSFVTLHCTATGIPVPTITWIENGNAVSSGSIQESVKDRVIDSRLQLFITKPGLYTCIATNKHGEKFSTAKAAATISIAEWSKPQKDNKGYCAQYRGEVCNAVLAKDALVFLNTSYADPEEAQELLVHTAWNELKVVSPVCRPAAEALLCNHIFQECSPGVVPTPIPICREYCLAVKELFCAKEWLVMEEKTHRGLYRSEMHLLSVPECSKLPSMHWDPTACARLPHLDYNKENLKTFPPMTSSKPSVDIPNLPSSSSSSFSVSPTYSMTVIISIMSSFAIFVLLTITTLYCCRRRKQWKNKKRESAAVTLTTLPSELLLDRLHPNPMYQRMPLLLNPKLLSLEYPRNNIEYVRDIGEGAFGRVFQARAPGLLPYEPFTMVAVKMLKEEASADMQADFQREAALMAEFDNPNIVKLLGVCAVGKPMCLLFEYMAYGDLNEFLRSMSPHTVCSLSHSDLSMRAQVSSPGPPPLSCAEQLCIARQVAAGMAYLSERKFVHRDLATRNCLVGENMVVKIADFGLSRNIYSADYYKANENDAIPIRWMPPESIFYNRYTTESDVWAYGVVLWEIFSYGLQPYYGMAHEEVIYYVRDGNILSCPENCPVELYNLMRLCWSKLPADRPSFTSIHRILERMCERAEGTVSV

[2] = molecular target: T2, kinases (KINOMEscan panel) (Homo sapiens, UniProt Q02156); details: kinase PRKCE; NEW KINOMEscan
T2 sequence (Q02156 1-737): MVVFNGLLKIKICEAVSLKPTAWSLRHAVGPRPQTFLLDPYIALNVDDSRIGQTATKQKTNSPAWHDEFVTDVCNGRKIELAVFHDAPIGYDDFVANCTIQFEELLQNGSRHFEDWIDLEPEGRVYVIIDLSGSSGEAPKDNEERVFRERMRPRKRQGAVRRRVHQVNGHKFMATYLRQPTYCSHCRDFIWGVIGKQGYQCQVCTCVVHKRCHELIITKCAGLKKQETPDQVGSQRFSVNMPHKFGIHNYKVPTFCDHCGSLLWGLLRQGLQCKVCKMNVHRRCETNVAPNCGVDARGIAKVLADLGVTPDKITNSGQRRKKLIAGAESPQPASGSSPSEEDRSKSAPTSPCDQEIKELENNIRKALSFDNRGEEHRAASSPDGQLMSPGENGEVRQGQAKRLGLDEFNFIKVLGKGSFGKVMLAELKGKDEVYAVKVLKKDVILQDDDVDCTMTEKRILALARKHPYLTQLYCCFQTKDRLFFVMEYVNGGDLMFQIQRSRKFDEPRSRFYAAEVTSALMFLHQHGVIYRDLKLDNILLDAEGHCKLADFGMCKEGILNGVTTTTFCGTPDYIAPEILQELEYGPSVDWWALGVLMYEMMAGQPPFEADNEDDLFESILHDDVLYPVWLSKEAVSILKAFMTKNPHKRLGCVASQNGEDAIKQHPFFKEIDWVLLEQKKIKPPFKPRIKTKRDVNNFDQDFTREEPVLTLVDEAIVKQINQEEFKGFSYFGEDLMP

[3] = molecular target: kinases (KINOMEscan panel) (Homo sapiens, UniProt P00519, F317I); details: NEW KINOMEscan; for KINOMEscan ABL1(F317I)-phosphorylated: kinase ABL1(F317I)-phosphorylated
[4] = molecular target: kinases (KINOMEscan panel) (Homo sapiens, UniProt Q14012); details: CAMK1; NEW KINOMEscan
[5] = molecular target: kinases (KINOMEscan panel) (Homo sapiens, UniProt Q00537); details: kinase CDK17; NEW KINOMEscan
[6] = molecular target: kinases (KINOMEscan panel) (Homo sapiens, UniProt P31751); details: NEW KINOMEscan
[7] = molecular target: kinases (KINOMEscan panel) (Homo sapiens, UniProt P19784); details: CSNK2A2; NEW KINOMEscan
[8] = molecular target: T3, kinases (KINOMEscan panel) (Homo sapiens, UniProt O14730); details: RIOK3; NEW KINOMEscan
T3 sequence (O14730 1-519): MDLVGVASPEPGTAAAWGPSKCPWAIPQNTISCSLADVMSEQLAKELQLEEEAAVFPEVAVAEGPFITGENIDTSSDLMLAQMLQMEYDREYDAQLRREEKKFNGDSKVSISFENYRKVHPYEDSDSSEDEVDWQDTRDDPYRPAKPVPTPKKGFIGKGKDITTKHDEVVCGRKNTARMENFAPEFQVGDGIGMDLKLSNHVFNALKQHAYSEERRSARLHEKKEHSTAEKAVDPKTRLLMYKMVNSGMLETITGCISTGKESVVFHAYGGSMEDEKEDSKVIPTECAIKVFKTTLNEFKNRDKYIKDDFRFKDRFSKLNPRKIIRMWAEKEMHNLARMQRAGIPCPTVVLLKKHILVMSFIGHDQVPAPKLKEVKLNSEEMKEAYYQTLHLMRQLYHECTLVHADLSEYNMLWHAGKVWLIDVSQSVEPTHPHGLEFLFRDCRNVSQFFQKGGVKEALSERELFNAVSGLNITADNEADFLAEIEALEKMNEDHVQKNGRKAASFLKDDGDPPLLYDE

[9] = molecular target: kinases (KINOMEscan panel) (Homo sapiens, UniProt P00519, F317L); details: NEW KINOMEscan; for KINOMEscan ABL1(F317L)-phosphorylated: kinase ABL1(F317L)-phosphorylated
[10] = molecular target: kinases (KINOMEscan panel) (Homo sapiens, UniProt P31749); details: kinase AKT1; NEW KINOMEscan
[11] = molecular target: kinases (KINOMEscan panel) (Homo sapiens, UniProt Q9Y243); details: kinase AKT3; NEW KINOMEscan
Chain of kinases (KINOMEscan panel) (Homo sapiens, UniProt Q9Y243) (Q9Y243 whole entry): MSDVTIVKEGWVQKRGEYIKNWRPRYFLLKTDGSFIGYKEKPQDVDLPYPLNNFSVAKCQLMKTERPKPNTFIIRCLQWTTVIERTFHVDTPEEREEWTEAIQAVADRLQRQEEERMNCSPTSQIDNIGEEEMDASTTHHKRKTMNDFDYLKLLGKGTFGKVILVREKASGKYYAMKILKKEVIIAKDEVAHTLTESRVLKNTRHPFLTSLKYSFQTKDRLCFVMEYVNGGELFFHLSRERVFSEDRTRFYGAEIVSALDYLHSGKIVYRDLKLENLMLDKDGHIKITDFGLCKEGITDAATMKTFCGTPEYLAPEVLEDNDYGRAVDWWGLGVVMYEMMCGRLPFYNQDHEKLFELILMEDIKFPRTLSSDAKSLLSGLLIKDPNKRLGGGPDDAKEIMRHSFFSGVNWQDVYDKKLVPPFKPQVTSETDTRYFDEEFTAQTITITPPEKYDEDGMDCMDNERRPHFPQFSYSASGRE

Chain of kinases (KINOMEscan panel) (Homo sapiens, UniProt P00519, F317L) (P00519 whole entry F317L): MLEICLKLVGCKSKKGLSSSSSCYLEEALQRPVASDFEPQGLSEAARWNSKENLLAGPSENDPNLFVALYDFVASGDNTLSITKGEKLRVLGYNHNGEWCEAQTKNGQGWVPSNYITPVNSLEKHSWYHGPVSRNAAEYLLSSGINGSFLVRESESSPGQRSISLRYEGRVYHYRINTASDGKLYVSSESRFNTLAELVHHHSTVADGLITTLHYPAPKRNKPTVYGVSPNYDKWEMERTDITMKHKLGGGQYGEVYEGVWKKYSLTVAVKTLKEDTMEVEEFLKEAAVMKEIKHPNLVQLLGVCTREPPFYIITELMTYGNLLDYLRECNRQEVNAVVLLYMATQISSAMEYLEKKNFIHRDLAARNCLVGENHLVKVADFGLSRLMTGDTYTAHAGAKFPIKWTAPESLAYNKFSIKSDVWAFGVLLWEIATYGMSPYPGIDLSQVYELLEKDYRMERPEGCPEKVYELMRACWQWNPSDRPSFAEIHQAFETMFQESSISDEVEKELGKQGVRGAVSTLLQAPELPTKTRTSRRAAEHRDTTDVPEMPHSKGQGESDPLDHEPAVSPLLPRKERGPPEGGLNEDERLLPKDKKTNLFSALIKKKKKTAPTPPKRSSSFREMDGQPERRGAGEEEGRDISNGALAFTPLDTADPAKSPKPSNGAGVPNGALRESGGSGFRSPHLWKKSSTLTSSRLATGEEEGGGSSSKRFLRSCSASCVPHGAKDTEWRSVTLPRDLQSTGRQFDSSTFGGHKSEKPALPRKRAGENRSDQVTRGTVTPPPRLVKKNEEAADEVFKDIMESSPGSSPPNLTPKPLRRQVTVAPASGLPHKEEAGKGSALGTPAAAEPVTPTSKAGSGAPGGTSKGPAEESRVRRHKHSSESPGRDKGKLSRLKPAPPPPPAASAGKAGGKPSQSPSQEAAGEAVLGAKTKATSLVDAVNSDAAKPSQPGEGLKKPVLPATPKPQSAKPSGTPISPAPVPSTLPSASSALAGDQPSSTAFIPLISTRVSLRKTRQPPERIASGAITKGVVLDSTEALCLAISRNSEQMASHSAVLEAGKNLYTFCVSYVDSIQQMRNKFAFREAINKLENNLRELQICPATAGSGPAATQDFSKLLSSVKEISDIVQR
Chain of kinases (KINOMEscan panel) (Homo sapiens, UniProt P00519, F317I) (P00519 whole entry F317I): as the sequence (P00519 whole entry F317L) above, with L317I counted along it
Chain of kinases (KINOMEscan panel) (Homo sapiens, UniProt Q14012) (Q14012 whole entry): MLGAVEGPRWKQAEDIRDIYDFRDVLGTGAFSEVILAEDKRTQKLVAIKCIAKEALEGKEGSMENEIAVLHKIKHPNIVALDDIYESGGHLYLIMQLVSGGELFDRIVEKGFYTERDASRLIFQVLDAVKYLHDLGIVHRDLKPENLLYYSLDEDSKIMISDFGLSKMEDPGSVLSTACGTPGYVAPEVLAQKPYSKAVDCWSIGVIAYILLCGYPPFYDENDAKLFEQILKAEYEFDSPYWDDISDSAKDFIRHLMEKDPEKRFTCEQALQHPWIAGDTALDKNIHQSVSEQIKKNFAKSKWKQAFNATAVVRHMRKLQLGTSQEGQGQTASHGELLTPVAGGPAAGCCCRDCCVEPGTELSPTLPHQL
Chain of kinases (KINOMEscan panel) (Homo sapiens, UniProt Q00537) (Q00537 whole entry): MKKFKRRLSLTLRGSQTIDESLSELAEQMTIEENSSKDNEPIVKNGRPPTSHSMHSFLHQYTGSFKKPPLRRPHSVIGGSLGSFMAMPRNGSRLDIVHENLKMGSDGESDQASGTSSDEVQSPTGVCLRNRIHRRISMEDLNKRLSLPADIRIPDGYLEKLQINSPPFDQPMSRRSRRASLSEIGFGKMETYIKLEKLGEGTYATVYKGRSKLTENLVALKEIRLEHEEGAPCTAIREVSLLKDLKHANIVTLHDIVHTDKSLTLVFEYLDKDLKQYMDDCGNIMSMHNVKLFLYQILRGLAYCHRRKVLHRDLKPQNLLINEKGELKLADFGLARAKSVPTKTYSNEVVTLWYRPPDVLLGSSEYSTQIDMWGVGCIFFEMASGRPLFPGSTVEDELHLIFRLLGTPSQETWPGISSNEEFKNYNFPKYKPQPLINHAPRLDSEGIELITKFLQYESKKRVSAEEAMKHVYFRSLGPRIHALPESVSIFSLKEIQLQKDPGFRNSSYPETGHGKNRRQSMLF
Chain of kinases (KINOMEscan panel) (Homo sapiens, UniProt P19784) (P19784 whole entry): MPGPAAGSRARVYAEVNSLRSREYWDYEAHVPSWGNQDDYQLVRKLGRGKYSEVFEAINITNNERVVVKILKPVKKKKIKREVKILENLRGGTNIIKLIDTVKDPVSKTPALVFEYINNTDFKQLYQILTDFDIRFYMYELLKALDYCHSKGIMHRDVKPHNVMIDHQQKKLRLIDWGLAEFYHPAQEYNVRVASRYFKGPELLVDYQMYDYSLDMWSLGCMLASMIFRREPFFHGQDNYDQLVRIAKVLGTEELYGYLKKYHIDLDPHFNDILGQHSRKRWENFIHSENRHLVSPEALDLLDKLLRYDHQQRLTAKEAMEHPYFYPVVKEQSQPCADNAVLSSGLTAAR
Chain of kinases (KINOMEscan panel) (Homo sapiens, UniProt P31749) (P31749 whole entry): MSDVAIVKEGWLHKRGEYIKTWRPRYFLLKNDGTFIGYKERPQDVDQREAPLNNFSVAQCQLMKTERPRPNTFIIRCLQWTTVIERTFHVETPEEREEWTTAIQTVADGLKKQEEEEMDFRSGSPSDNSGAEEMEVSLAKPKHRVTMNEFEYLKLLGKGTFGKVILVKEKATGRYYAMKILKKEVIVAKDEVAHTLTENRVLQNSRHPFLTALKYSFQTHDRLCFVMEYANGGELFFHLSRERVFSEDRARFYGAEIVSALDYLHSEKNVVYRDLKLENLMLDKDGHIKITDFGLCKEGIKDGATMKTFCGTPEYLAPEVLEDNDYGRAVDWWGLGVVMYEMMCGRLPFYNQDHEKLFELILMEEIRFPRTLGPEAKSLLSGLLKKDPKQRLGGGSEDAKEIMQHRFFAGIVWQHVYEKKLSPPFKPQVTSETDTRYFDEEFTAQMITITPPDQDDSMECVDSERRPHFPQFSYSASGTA
Chain of kinases (KINOMEscan panel) (Homo sapiens, UniProt P31751) (P31751 whole entry): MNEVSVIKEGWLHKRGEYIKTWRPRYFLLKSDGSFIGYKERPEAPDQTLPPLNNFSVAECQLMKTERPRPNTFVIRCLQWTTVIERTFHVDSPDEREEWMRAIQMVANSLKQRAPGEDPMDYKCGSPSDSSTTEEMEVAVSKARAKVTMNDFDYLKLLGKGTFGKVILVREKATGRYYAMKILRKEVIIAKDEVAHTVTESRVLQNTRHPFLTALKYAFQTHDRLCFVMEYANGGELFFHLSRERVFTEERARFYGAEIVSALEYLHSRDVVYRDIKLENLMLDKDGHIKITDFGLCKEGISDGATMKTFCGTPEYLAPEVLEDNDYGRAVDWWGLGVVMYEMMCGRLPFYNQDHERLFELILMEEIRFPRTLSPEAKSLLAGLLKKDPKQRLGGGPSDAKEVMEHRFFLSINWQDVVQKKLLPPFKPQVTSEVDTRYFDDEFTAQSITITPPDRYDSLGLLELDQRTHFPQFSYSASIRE

Row | Structure (SMILES) | KINOMEscan MUSK [1] | KINOMEscan PRKCE [2] | KINOMEscan ABL1(F317I)-nonphosphorylated [3] | KINOMEscan ABL1(F317I)-phosphorylated [3] | KINOMEscan CAMK1 [4] | KINOMEscan CDK17 [5] | KINOMEscan AKT2 [6] | KINOMEscan CSNK2A2 [7] | KINOMEscan RIOK3 [8] | KINOMEscan ABL1(F317L)-nonphosphorylated [9] | KINOMEscan ABL1(F317L)-phosphorylated [9] | KINOMEscan AKT1 [10] | KINOMEscan AKT3 [11]
1 | Cc1cccc(-c2nc(Nc3ccc4nn(C)cc4c3)c3ccccc3n2)n1 [NK167] | 2 | 0 | 0 | 0 | 0 | 1 | 28 | 0 | 0 | 30 | 0 | 10 | 0
2 | Cc1cccc(-c2nc(N(C)c3ccc4ncsc4c3)c3ccccc3n2)n1 [NK-161] | 0 | 7 | 9 | 0 | 0 | 0 | 19 | 5 | 0 | 18 | 0 | 17 | 0
